Data reported in PMC7733455, “A novel multistage antiplasmodial inhibitor targeting Plasmodium falciparum histone deacetylase 1” (Cell Discovery, 2020).
Where two headings read alike, the source gives them in different places.

Assays:
[1] = Pharmacokinetic assay in mice; type: in vivo, BALB/c mice; conditions: 5 mg/kg i.p.
Experimental: Five female BALB/c mice (6–8 weeks, 18–19 g) per group were purchased from JH Laboratory Animal Co., Ltd. All mice were raised at controlled temperature and humidity and had free access to food and water. Compounds were dissolved in 5% DMSO and diluted with 20% aqueous 2-hydroxypropyl-β-cyclodextrin solution to a stock concentration of 0.5 mg/mL. Each mouse was i.p. injected with the compound solution at a dose of 5 mg/kg. Blood samples collected by anticoagulant (K2EDTA)-containing tubes at 0.25, 0.5, 1, 2, 4, 8, and 24 h after injection were centrifuged at 2000× g at 4 °C for 5 min to obtain plasma. LC-MS/MS analysis of samples was carried out by an ACQUITY UPLC HSS T3 1.8-μm column. The mobile phase was a mixture of phase A (0.1% formic acid in water) and phase B (0.1% formic acid in acetonitrile), which ran in gradient mode at a flow rate of 0.6 mL/min at 60 °C. Mass spectra were obtained on an API6500 triple quadrupole equipped with an ESI source. Propranolol was used as an internal standard. The plasma concentrations of the compounds were analyzed, and the pharmacokinetic parameters were calculated via WinNonlin.

[2] = Liver microsome metabolism assay, mouse; type: in vitro ADME
Experimental: Liver microsomes (0.5 mg/mL) were purchased from Corning. Ketanserin was selected as a positive control. The tested compounds were first dissolved in DMSO to a concentration of 10 mM and then diluted to 0.5 mM with acetonitrile. Liver microsome buffer was used to dilute the compounds to a working concentration of 1.5 µM, 30 µL of which was mixed with 15 µL of 6 mM NADPH at 37 °C. At 0, 5, 15, 30, and 45 min after incubation, 135 µL of acetonitrile was added to quench the reaction. The mixture was shaken on a vortex mixer (IKA, MTS 2/4) for 10 min at 600 rpm/min and then centrifuged at 5594× g for 15 min (Thermo Multifuge×3R). The supernatant was diluted 1:1 into distilled water, and analyzed by LC-MS/MS.

[3] = test system: parasite histone H3 acetylation; assay: Western blot of histone H3 acetylation in parasites; type: cell-based, Plasmodium falciparum; conditions: 4 h treatment of asynchronous 3D7; quisinostat/JX21108 5 and 20 nM, SAHA 500 nM
Experimental: Then the parasite samples were harvested and treated with 0.15% saponin to remove the RBC proteins and sonicated in 1% NP40 lysis buffer. After centrifugation at 12,000× g for 15 min, the supernatant was resuspended in a routine SDS loading buffer. Parasite proteins were separated by 10% SDS-PAGE and transferred onto PVDF membranes (Millipore). […] A2348) followed by a secondary antibody conjugated with HRP (Jackson Immuno Research Laboratories). The chemiluminescent HRP substrate Immobilon Western Kit (Millipore) was used for signal detection.

hSirt2 = biological target: T1, hSirt2 (Homo sapiens, UniProt Q8IXJ6); assay: Human HDAC inhibition assay, hSirt2; type: biochemical; conditions: performed only once; read-out: Inhibitory Activity IC50, hSirt2
T1 construct: purchased BPS Bioscience 50013
T1 sequence (Q8IXJ6 whole entry): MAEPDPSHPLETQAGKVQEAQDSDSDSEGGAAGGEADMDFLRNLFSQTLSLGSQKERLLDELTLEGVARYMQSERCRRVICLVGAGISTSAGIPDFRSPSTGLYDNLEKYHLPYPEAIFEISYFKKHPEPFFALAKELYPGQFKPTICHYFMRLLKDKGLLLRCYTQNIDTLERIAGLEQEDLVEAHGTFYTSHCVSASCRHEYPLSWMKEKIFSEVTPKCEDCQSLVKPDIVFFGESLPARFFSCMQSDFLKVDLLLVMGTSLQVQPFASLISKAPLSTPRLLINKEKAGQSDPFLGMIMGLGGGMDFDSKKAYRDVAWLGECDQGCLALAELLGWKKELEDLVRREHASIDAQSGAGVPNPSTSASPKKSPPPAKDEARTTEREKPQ
Experimental: SAHA and suramin were used as positive controls. The tested compounds were dissolved into 20 mM stock in 100% DMSO. […] Ten microliters of trypsin and Ac-peptide substrate/Tris buffer solution were added to start the reaction, followed by a 1-h incubation at room temperature for HDACs 1–3 and 6. Ten microliters of Ac-peptide substrate/Tris buffer solution was added to start the reaction, followed by a 4-h incubation at room temperature and a further 2-h incubation with trypsin solution for HDAC8 and Sirt 2. […] This experiment was performed only once.

[4] = In vitro cytotoxicity analysis (CellTiter-Glo), 293T; conditions: human, 293T cells, Cytotoxicity EC50, 293T, 72 h, CellTiter-Glo
Experimental: (§1) In all, 1% DMSO was used as a negative control. The inhibition of each drug was normalized to that of the DMSO control. EC50 was calculated by GraphPad Prism. Three independent assays with two technical replicates each time were conducted in this experiment.

293T cells = assay: as above; conditions: read-out: Cytotoxicity EC50, 293T; 72 h, CellTiter-Glo
Experimental: as §1

P. falciparum 3D7 = assay: 3-day SYBR Green I growth inhibition assay (GIA), strain 3D7; type: cell-based, Plasmodium falciparum; conditions: Plasmodium falciparum, 3D7, 72 h, read-out: Antiplasmodial activity EC50, 3D7
Experimental: (§2) A 3-day SYBR Green I inhibition EC50 assay was performed as described previously. Briefly, highly synchronized ring-stage parasites by 5% sorbitol (1% parasitemia and 2% hematocrit) were incubated in a 96-well plate with compounds in a total volume of 200 μL. […] The parasites were cultured for 72 h before SYBR Green I staining as described above. The EC50 was calculated by GraphPad Prism. DHA was used as a positive control, and the final concentration of DMSO was 1%.

[5] = test system: asynchronous 3D7 parasites; assay: Time- and dose-dependent parasite inhibition assay; type: cell-based, Plasmodium falciparum
Experimental: Asynchronous parasites (2% parasitemia, 4% hematocrit) were treated with the tested compounds at a concentration of 10, 30, 60, or 100 nM, respectively. At 3, 6, 12, and 24 h post treatment, parasitemia of each sample was detected by flow cytometry to investigate the time-dependent activity. Parasites from the same treatment were further washed to remove compounds, and parasitemia was diluted 1:40 by new RBCs into CM for an additional 4 days of culture. Parasitemia of each sample was detected by flow cytometry as described above to investigate the dose-dependent activity. DMSO was used as a blank control.

P. yoelii = assay: In vivo efficacy of the five HDAC inhibitor hits in rodent malaria model (Fig. S1c); design: species or system Plasmodium yoelii in BALB/c mice; conditions: i.p., three mice per group
Experimental: Fimepinostat Pinometostat
Sodium Phenylbutyrate 500 50
Givinostat hydrochloride monohydrate
Supplementary Fig. S1 Screening of epigenetic inhibitors against blood-stage P. […]
nM and 500 nM tested compounds compared to that with the DMSO control. b The EC50 values of five compounds against Pf3D7, HepG2 and 293T cells; SIa,EC 50 HepG2/ […]
of P. yoelii in BALB/c mice. Three mice were used in each group. Parasitemia was calculated from at least 5,000 red blood cells (RBCs) by microscopy . Blank, untreated group; PPQ, piperaquine phosphate. The administration route was intraperitoneal (i.p.). The data of a and b are from three independent biological replicates in […]
(also on this page, place not known: BET BromodominHDMHMT […] HDAC SI ±3.2 ±24 ±125 % Parasitemia microscopy. a) […]

P. falciparum Dd2 = assay: 3-day SYBR Green I GIA, multidrug-resistant strain Dd2; type: cell-based, Plasmodium falciparum
Experimental: as §2

[6] = In vitro cytotoxicity analysis (CellTiter-Glo), HepG2; conditions: human, HepG2 cells
Experimental: as §1

HepG2 cells = assay: as above; conditions: read-out: Cytotoxicity EC50, HepG2; 72 h, CellTiter-Glo
Experimental: as §1

[7] = female, BALB/c, mouse, plasma, ip

Cn1cc(CNCC2CCN(c3ncc(C(=O)NO)cn3)CC2)c2ccccc21 [Quisinostat, reference compound]
CL/F [1]: 462 mL/min/kg
Cmax [1]: 88.7 ng/mL
Tmax [1]: 4.98 min
V/F [1]: 245 L/kg
plasma concentration ([1]; during 8–12 h after administration): ~ 2.5 ng/mL
AUC(0-inf) [1, 7]: 180 ng·h/mL
AUC(0-t) [1, 7]: 157 ng·h/mL
half-life [1, 7]: 368 min
T1/2 in liver microsomes [2]: 13.31 min
half-life at 1 µM ([2]; mouse, liver microsomes, read-out: T1/2 in liver microsomes): 13.3 min
pan-acetylation levels of parasite histone H3 [3]: greatly increased the pan-acetylation levels of parasite histone H3
IC50 (hSirt2): > 10 µM
EC50 at 72 h [4]: 0.042 µM
EC50 (293T cells): 0.048 ± 0.001 µM
EC50 (P. falciparum 3D7): 0.0052 ± 0.0007 µM
parasitemia measured 4 days after 6-h treatment ([5]; 6-h treatment, washed, 1:40 dilution, 4 days culture): substantial reduction in parasitemia
asexual growth of 3D7 after 12- and 24-h treatments ([5]; 10-100 nM, parasitemia immediately after treatment): significantly inhibited the asexual growth of 3D7 parasites
clearing of P. yoelii blood-stage infections (P. yoelii): remained effective in clearing P. yoelii blood-stage infections
EC50 (P. falciparum Dd2; Plasmodium falciparum, DD2, 72 h, read-out: Antiplasmodial activity EC50, Dd2, 3-day SYBR Green I GIA, multidrug-resistant strain Dd2): 0.0071 µM
EC50 (P. falciparum Dd2; read-out: Antiplasmodial activity EC50, Dd2, 3-day SYBR Green I GIA, multidrug-resistant strain Dd2): 0.00709 ± 1e-05 µM
EC50 at 72 h [6]: 0.048 µM
EC50 (HepG2 cells): 0.042 ± 0.01 µM
